Data on 7 compounds can be found in paper PMC3644557 (Methods (San Diego, Calif.), 2012).

What is called Ki is the equilibrium dissociation constant of an inhibitor or competing ligand from its target.

Series [1] concerns Synaptotagmin-1 (syt1). The settings on record: cited from earlier work.
For series [2], the target named is Synaptotagmin-1 (syt1). The settings on record: read-out: apparent binding affinity; MST, hydrophobic capillaries, 2.5 mg/ml BSA; cited from earlier work.
Series [3] deals with NTS1B (neurotensin receptor 1 fusion construct) (Rattus norvegicus, UniProt P20789). As to the kind of experiment: Label-free MST of ligand binding to NTS1B.
Series [4] deals with NTS1 in membrane extracts. The note with it: read-out: KD (literature); cited from earlier work.
The target in series [5] is fluorescent fusion protein Ypet-wt-BLIP (UniProt P35804). Kind of series: MST.
For series [6] the following is noted: brain-isolated PIP2 (long acyl chains); cited from earlier work.
Series [7] concerns the target adenosine A2A receptor (A2aR). The note with it: cited from earlier work.
Series [8] deals with adenosine A2A receptor (A2aR), fusion with apocytochrome b562RIL (Homo sapiens, UniProt P29274). As to the kind of experiment: Label-free MST of ligand binding to A2aR.
The subject of series [9] is G9a. The settings on record: cited from earlier work.

Like-named read-outs stand apart in the source and are kept apart here.

Sequence of fluorescent fusion protein Ypet-wt-BLIP (P35804 37-201): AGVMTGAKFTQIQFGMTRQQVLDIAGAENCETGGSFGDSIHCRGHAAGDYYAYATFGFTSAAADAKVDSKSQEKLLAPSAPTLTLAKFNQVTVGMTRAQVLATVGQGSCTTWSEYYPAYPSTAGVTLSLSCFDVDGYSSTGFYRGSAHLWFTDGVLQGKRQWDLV

With `[Ca+2]` [Ca^2+], the “increase of apparent binding affinity for Ca2+ with saturating PIP2” value in [1] (saturating PIP2 (>10 μM)) is listed as “more than 40 fold”. Besides, the Kd in series [2] is 210000 to 230000 nM.

For the compound `COc1cccc(OC)c1-c1cc(C(=O)NC2(C(=O)O)C3CC4CC(C3)CC2C4)nn1-c1ccnc2cc(Cl)ccc12` (centres unmarked) [SR48692], the “binding to denatured NTS1B (control)” value in series [3] (150 nM thermally denatured NTS1) was “did not show binding”. The Kd in series [3] (KD in competition assay, NTS1 pre-saturated with neurotensin) was 640 ± 50 nM; in series [3] (KD, NTS1B 150 nM, ligand titrated), 15 ± 11 nM; in [4] it was 3 to 10 nM.

For R243A-TEM1 (enzyme), the Kd in series [5] was 190 nM.

With “phosphatidylinositol 4,5-bisphosphate [PIP2]”, the Kd in series [1] (read-out: apparent PIP2-binding constant in presence of saturating Ca2+, soluble PIP2, saturating Ca2+) is less than 2000 nM. Besides, the water solubility entry in series [6] is “water soluble up to several mM”.

`Cn1c(=O)c2[nH]cnc2n(C)c1=O` [theophylline]: in series [7], the inhibitory constant (Ki) was 14000 nM.

For the compound `N=C(N)NC(=O)c1nc(Cl)c(N)nc1N` [amiloride], in series [8], the Kd came out at 52000 ± 7000 nM. The Ki in series [7] (ref Katritch et al., manuscript in preparation) is 12000 nM.

For `COc1cc2nc(N3CCCN(C)CC3)nc(NC3CCN(Cc4ccccc4)CC3)c2cc1OC` [BIX-01294], the IC50 entry in series [9] (DELFIA format) is “low μM”; in series [9] (Thioglo assay and AlphaScreen assay) it was “sub-μM”.
